# Article PMC5823474, “A natural agonist of mosquito TRPA1 from the medicinal plant Cinnamosma fragrans that is toxic, antifeedant, and repellent to the yellow fever mosquito Aedes aegypti” (PLoS Neglected Tropical Diseases, 2018)
# Molecular target: T1, AgTRPA1 (Transient Receptor Potential A1) (Anopheles gambiae, UniProt B3G3I7)
# T1 construct: AgTRPA1 cRNA expressed in Xenopus laevis oocytes
# T1 sequence (B3G3I7 1-1248): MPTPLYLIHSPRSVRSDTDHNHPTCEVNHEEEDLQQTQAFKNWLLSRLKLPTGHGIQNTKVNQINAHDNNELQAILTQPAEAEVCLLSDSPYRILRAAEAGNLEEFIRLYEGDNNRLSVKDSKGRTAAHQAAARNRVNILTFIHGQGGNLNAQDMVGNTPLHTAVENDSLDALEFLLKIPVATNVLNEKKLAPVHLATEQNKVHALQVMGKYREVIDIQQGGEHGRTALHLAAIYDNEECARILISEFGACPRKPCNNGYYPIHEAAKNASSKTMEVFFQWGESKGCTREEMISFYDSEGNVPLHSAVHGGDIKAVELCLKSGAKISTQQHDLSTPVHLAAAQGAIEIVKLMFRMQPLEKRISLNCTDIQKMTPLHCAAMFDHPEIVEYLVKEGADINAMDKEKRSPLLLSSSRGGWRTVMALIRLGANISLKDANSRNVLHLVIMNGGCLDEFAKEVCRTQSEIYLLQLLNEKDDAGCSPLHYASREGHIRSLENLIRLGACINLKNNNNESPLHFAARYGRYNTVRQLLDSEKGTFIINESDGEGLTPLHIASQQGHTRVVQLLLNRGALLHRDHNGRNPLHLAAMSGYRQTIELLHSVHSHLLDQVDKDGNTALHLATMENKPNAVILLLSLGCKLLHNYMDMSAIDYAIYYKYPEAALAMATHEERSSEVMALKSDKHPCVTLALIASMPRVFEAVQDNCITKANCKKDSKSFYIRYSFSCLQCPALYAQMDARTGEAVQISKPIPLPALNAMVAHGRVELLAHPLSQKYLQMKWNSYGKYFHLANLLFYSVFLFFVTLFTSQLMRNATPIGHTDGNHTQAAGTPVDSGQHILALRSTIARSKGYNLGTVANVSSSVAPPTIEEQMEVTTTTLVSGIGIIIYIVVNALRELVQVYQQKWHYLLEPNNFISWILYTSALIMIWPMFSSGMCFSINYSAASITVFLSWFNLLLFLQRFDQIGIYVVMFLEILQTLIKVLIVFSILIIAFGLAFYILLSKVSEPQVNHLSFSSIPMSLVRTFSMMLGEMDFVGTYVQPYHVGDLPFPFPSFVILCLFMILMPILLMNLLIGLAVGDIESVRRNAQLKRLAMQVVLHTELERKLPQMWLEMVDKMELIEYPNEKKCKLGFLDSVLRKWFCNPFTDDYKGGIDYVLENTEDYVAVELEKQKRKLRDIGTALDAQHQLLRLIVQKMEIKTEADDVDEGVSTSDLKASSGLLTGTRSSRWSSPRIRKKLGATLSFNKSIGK
# Assay: two-electrode voltage clamp in Xenopus oocytes, weaker agonist at […]; no response in H2O-injected oocytes
# Format: cell-based
compound,measurement,value
"CC(=O)O[C@@H]1C=C(C2O[C@@H]3O[C@@H](O)C4=C[C@@H](OC(C)=O)[C@H]5C(C)(C)CCC[C@]5(C)[C@]43O2)[C@](O)(C=O)[C@@]2(C)CCCC(C)(C)[C@H]12 (stereo partly shown) [CFRAG, cinnafragrin A]","two-electrode voltage clamp in Xenopus oocytes, weaker agonist at 10 μM; no resp","CFRAG produced a similar response, but the peak Im elicited by CDIAL"
